Assay results reported in USRE38723E1, “Haloalkyl derivatives of reporter molecules used to analyze metabolic activity in cells” (Molecular Probes, Inc., priority 1991, dated 2005).

Legend:
[1] = tested on: Glutathione Transferase from Equine Liver; assay: Glutathione transferase activity in vitro (Example 14); format: biochemical; conditions: room temperature, with GSH
Protocol: Activity of glutathione transferase in vitro can be assayed essentially by the method of Grants and Matsumura (INSECT PHYSIOL. 18 (6), 615 (1988)). • 1) Reagents: The stock reagents required are: 1) 5-Chloromethylfluorescein (CMF) substrate (Example 1) 10 mg/mL in DMF, diluted 1:10 in reaction buffer to 1 mg/mL; 2). Reaction buffer 100 mM potassium phosphate, 15% glycerol pH 6.8; 3). Glutathione (GSH) 155 mM in 20 mM TRIS, 2 mM DTT, 15% glycerol pH 7.8; 4). Glutathione Transferase from Equine Liver (Sigma #G 6511) 1.0 mg/mL in reaction buffer. • 2) Assay. The reaction mixture consists of 0.7 mL reaction buffer, 0.1 mL GSH, 0.1 mL substrate and 0.1 mL enzyme. The background is measured and subtracted by using 0.1 mL of the reaction buffer instead of the enzyme. Enzymatic activity can be detected at less than 5 minutes at room temperature. Product formation can be detected by separation of the polar product from the less polar substrate by a suitable means such as thin layer chromatography or high performance liquid chromatography. For instance, product accumulation can be detected by thin layer chromatography using A) 15:85 methanol:chloroform or B) 2:5:15 NH4OH:isopropyl alcohol:methanol. […] Alternatively the fluorescence of the product is determined using a fluorometer versus a fluorescein standard with excitation at 492 and emission measured at 515 nm. […]

[2] = tested on: lacZ positive CRE BAG 2 cells; assay: Staining of living lacZ positive cells with galactosidase substrate (Example 11); format: cell-based
Protocol: (§1) NIH/3T3 cells (lacZ negative) and CRE BAG 2 cells (3T3 cells transformed with a retrovirus containing lacZ gene) are employed for cellular assays. Both cell lines can be obtained from American Type Culture Collection Co., Rockville, Md. The cells are grown in a humidified atmosphere of 5% CO2 in Dulbecco's modified Eagle's medium supplemented with 10% calf serum, 50 μg/mL gentamicin, 300 μg/mL L-glutamine and 10 mM HEPES pH 7.4.
(§2) 4-Chloromethylumbelliferyl β-D-galactoside (Cl-MUG) (Example 3) is dissolved in DMSO to get a 10 mM stock solution. A 10 mM stock solution of 4-methylumbelliferyl β-D-galactoside (MUG) (Molecular Probes) is also made in DMSO as a control. The stock solutions are kept sealed in brown reagent bottles and stored at −20° C.
(§3) 100 μL of stock solution is added to 10 mL of fresh culture medium to prepare a “working medium” containing 100 μM Cl-MUG. This medium is filter-sterilized by passing through an Acrodisc™ filter (0.45 μm pore size). A working medium containing MUG is prepared in the same way.
(§4) Cells grown on coverslips are transferred to the working medium and incubated at 37° C. under normal conditions. Cells are examined at the desired time for their fluorescence under a Zeiss microscope equipped with a Hoechst filter set (EX […]/EM 480 nm). […] After 6 hours continuous incubation, the fluorescence intensity of stained CRE BAG 2 cells reaches its highest level.

[3] = tested on: NIH/3T3 cells (lacZ negative); assay: Staining of living lacZ negative cells with galactosidase substrate (Example 11); format: cell-based; conditions: 100 μM in working medium, 60 minutes at 37° C., washed with fresh medium
Protocol: as §1, §2, §3, §4

[4] = tested on: NIH/3T3 cells and CRE BAG 2 cells; assay: Cytotoxicity of substrate in working medium (Example 11); format: cell-based
Protocol: as §1, §3
Fluorescence can be detected in the cells for at least 24 hours following washing of the cells with fresh medium.

[5] = tested on: lacZ positive cells; assay: Dye retention after paraformaldehyde fixation (Example 11); format: cell-based; conditions: 3.7% paraformaldehyde fixation, Hoechst filter set
Protocol: The cells grown on coverslips and incubated with either Cl-MUG or MUG are immersed in 3.7% paraformaldehyde in 80 mM Pipes buffer, pH 6.5 for 4 minutes to allow the paraformaldehyde to penetrate the cells. The cells are then transferred to 3.7% paraformaldehyde in PBS. After 6 minutes, the cells are washed three times with PBS buffer for ten minutes. The coverslips are put on the slides and sealed.
The fixed cells are examined for their fluorescence under a Zeiss microscope equipped with a Hoechst filter set.

[6] = tested on: CRE-BAG2 cells expressing β-galactosidase; assay: Cellular retention of coumarin galactopyranoside substrates (Example 17); format: cell-based; conditions: 10 μM, hypotonic shock loading, 37° C., excitation 360±20 nm, emission >400 nm
Protocol: CRE-BAG2 cells are prepared as described in Example 15.
Staining solutions of 4-methylcoumarin β-D-galactopyranoside, 4-chloromethylcoumarin β-D-galactopyranoside and 4-trifluoromethylcoumarin β-D-galactopyranoside, respectively, are prepared that are 10 μM in concentration. Each galactopyranoside substrate is loaded into CRE-BAG2 cells expressing β-galactosidase using brief hypotonic shock for less than five minutes. Cells are then washed free of extracellular substrate and incubated for three hours in fresh culture medium at 37° C. Each cell sample is then illuminated at 360±20 nm, and the fluorescence is observed at >400 nm. Fluorescence intensity data is acquired using a cooled CCD camera and subsequently stored in digital format.

[7] = tested on: NIH/3T3 cells; assay: Cellular retention of rhodamine 110 peptidase substrates (Example 16); format: cell-based; conditions: 25 μM; for leakage of enzyme reaction product after staining: 30 minutes at 37° C.; for fluorescence after washing and several hours in fresh media: fluorescein long-pass filter set
Protocol: NIH/3T3 cells are prepared as described in Example 15.
Staining solutions of bis-(L-leucine)-rhodamine 110 and L-leucine-rhodamine 110-p-chloromethylbenzamide (Example 9), respectively, are prepared that are 25 μM in concentration. Equivalent NIH/3T3 cells are incubated with the same amount of peptidase substrate for thirty (30) minutes at 37° C. in Modified Tyrode's buffered saline (135 mM NaCl, 5 mM KCl, 1 mM MgCl2, 1.8 mM CaCl2, 10 mM NaHEPES, 5.6 mM glucose, pH 7.5, plus 0.1% bovine serum albumin).
The cells are washed and placed in fresh media for several hours.

[8] = tested on: lacZ positive CRE BAG 2 cells; assay: Cellular retention after loading by hypoosmotic shock (Example 12); format: cell-based; conditions: after incubation for 4 hours, 2 mM
Protocol: 5-Chloromethylfluorescein di-β-D-galactoside (CMFDG) (Example 1) is dissolved in DMSO to get 20 mM stock solution. A 40 mM stock solution offluorescein di-β-D-galaetoside (FDG) (Molecular Probes) is also made in DMSO as a control. The stock solutions are kept sealed in brown reagent bottles and stored at −20° C.
• (A) FCS-PBS Solution: Phosphate buffered saline (GIBCO), 4% fetal calf serum, 10 mM HEPES, pH 7.2 • (B) Staining Solution: CMFDG: 200 μL of stock solution is diluted with distilled water to 4 mL to get a 1 mM staining solution. FDG: 400 μL of stock solution is diluted to 4 mL with distilled water to get a 4 mM staining solution. 4. Staining and Examination of Cells:
Cells grown on coverslips are transferred to a Petri dish containing 3 mL of FCS-PBS solution and then incubated at 37° C. for 10 minutes. 3 mL of prewarmed (37° C.) 1 mM CMFDG staining solution is added to give a final dye concentration of 0.5 mM The solutions are mixed rapidly. The cells are incubated at 37° C. for exactly one minute. To stop the loading, the cells are transferred to a 1.8 mL of ice-cold FCS-PBS solution. FDG is loaded into cells by using the same procedure except that the final dye concentrations is 2 mM. Cells are then incubated under normal culture conditions to examine the dye retention. Cells are examined without washing at the desired time for their fluorescence under a Zeiss microscope equipped with a FITC filter set (EX 485 nm/EM 530 nm).

[9] = 100 μM working medium for 24 hours

O=C1OC2(c3ccc(O)cc3Oc3cc(O)ccc32)c2ccc(CCl)cc21 [CMF, 5-chloromethylfluorescein]
time at which enzymatic activity can be detected [1]: less than 5 minutes

O=c1cc(CCl)c2ccc(O[C@@H]3O[C@H](CO)[C@H](O)[C@H](O)[C@H]3O)cc2o1 [Cl-MUG, 7-(β-D-galactopyranosyloxy)-4-chloromethylcoumarin]
fluorescence of cells under microscope ([2]; 100 μM in working medium, 60 minutes at 37° C., washed with fresh medium): fluorescence is observed in the cytoplasmic area
continuous incubation time at which fluorescence intensity reaches its highest level ([2]; 100 μM working medium): 6 h
fluorescence of cells under microscope [3]: not in 3T3 cells
cell morphology [4, 9]: morphologically normal
population doubling time versus cells in substrate-free medium [4, 9]: same population doubling time
time fluorescence can be detected in the cells following washing with fresh medium ([4]; after incubation in working medium): at least 24 hours
cytotoxicity ([4]; either type of cell): no cytotoxicity
subculture after preincubation ([4]; preincubated in working medium for 6 hours, subcultured in fresh medium): second generation of cells that is normal
fluorescence of fixed cells [5]: still brightly fluorescent
fluorescence intensity after three hours in fresh culture medium [6]: brightly fluorescent

Cc1cc(=O)oc2cc(O[C@@H]3O[C@H](CO)[C@H](O)[C@H](O)[C@H]3O)ccc12 [MUG, 4-methylumbelliferyl β-D-galactoside, reference compound]
fluorescence of fixed cells [5]: barely fluorescent
fluorescence intensity after three hours in fresh culture medium [6]: low fluorescent intensity

CC(C)CC(N)C(=O)Nc1ccc2c(c1)Oc1cc(NC(=O)c3ccc(CCl)cc3)ccc1C21OC(=O)c2ccccc21 [L-leucine-rhodamine 110-p-chloromethylbenzamide]
leakage of enzyme reaction product after staining [7]: significantly less leakage
fluorescence after washing and several hours in fresh media [7]: bright, well-defined staining pattern
melting point: 275 °C (dec.)

CC(C)CC(N)C(=O)Nc1ccc2c(c1)Oc1cc(NC(=O)C(N)CC(C)C)ccc1C21OC(=O)c2ccccc21 [bis-(L-leucine)-rhodamine 110, reference compound]
leakage of enzyme reaction product after staining [7]: substantial leakage
fluorescence after washing and several hours in fresh media [7]: no fluorescent signal

O=c1cc(C(F)(F)F)c2ccc(O[C@@H]3O[C@H](CO)[C@H](O)[C@H](O)[C@H]3O)cc2o1 [4-trifluoromethylcoumarin β-D-galactopyranoside]
fluorescence intensity after three hours in fresh culture medium [6]: low fluorescent intensity

O=C1OC2(c3ccc(O[C@@H]4O[C@H](CO)[C@H](O)[C@H](O)[C@H]4O)cc3Oc3cc(O[C@@H]4O[C@H](CO)[C@H](O)[C@H](O)[C@H]4O)ccc32)c2ccccc21 [FDG, fluorescein di-β-D-galaetoside, reference compound]
fluorescence of stained cells after 4 hours [8]: very dim with high background fluorescence in the medium
